Read-outs that look alike come from different tables or passages of the source.
Columns and labels:
human orexin 2 receptors [1] = biological target: T1, human orexin 2 receptors (Homo sapiens, UniProt O43614); experiment: Calcium accumulation in cells (FLIPR), hOx2R; assay type: cell-based; details: cells expressing human orexin 2 receptor; inhibition of orexin A-induced calcium accumulation; Cheng and Prusoff correction
T1 sequence (O43614 1-444): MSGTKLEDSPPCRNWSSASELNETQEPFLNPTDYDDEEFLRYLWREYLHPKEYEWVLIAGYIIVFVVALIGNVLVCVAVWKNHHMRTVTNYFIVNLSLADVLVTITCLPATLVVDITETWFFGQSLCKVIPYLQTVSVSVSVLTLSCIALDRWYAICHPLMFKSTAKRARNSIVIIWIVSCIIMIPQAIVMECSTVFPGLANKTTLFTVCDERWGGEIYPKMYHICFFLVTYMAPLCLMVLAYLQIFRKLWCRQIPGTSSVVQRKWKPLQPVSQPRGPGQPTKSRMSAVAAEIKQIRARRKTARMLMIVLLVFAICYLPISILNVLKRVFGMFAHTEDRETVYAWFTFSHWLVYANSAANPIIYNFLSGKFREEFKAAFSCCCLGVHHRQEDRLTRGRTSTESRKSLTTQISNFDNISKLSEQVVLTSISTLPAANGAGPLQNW
Description: Cells expressing human orexin 1 or human orexin 2 receptors, were seeded at 8,000 cells/well in 384 well black-walled clear bottom, poly-D-lysine coated plates. After 24 h, the medium was removed and cells were washed once with phosphate buffered saline and serum-deprived overnight in assay buffer (130 mM NaCl, 5.4 mM KCl, 1.8 mM CaCl2, 0.8 mM MgSO4, 0.9 mM NaH2PO4, 25 mM glucose, 20 mM HEPES, pH 7.4) containing bovine serum albumin (1% w/v).
On the day of the experiment, the cells seeded in black plates were treated with assay buffer containing the Ca^2+sensitive fluorescent dye Fluo-4-AM (2 μM), and probenecid (0.1 mM). After 1 h plates were washed twice with, and resuspended in, assay buffer containing probenecid (0.1 mM) using a multi plate washer. […] Fluorescence measurements were then continued every 1 S for 120 S followed by every 4 S for 240 S.
The measurements were typically made in two sequences:
Compounds of formula I were tested usually in a concentration range from 10^−9 M to 10^−5 M. In the second round, performed one hour later (to allow for equilibration), Orexin A was tested either in the absence (calibration curves, Orexin A agonist controls) or in the presence of compounds of formula I to determine antagonism.

human orexin 1 receptors [2] = biological target: T2, human orexin 1 receptors (Homo sapiens, UniProt O43613); experiment: Calcium accumulation in cells (FLIPR), hOx1R
T2 sequence (O43613 1-425): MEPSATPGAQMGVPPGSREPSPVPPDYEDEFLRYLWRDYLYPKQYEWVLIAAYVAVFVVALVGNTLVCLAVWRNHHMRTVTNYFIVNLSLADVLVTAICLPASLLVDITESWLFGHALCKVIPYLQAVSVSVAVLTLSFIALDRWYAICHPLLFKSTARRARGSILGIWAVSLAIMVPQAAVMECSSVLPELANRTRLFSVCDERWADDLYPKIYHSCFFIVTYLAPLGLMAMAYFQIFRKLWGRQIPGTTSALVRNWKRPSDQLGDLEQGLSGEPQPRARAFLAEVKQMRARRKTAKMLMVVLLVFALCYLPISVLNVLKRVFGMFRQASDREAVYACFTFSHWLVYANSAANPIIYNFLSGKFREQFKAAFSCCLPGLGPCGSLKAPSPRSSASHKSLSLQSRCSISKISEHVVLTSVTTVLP

human orexin 1 receptors [3] = biological target: T2, human orexin 1 receptors; experiment: Radioligand binding assay ([3H]-SB649868 competition), hOx1R; details: competition with about 1 nM [3H]-SB649868; CHO or HEK cell membranes expressing human orexin 1 receptor
Description: (§1) The cell pellet was either stored at −80° C. or used directly. Before the experiments, cell membranes were re-suspended in binding assay buffer (10 mM HEPES, 0.5% (w/v) bovine serum albumin, pH 7.5) by homogenisation with a Polytron homogeniser at 50 Hz for 20 s. Cell membranes were also used as made available by commercial providers.
(§2) Bound radioactivity was measured, and data were analysed with the program XLFIT or Graphpad Prism. Protein concentration was determined according to the Bradford/BioRad Protein Assay Kit.
(§3) In competition experiments, cell homogenates (150 μl) were incubated in assay buffer (10 mM HEPES, pH 7.5, 0.5% (w/v) bovine serum albumin, 5 mM MgCl2, 1 mMCaCl2, and tween 0.05%) for 1 h at room temperature with about 1 nM of the radioligand [^3H]-SB649868, 66 Ci/mmole, 50 μl), and with various concentrations of compounds of the invention (50 μl) in triplicates; non-specific binding was determined in the presence of almorexant (10 μM). Reactions were terminated by vacuum filtration, 3 washes of ice cold wash buffer (Tris-HCl pH 7.4/10 mM, with NaCl 154 mM). Competition data is expressed in Table 2 as Kd [μM].

human orexin 2 receptors [4] = biological target: T1, human orexin 2 receptors; experiment: Radioligand binding assay ([3H]-SB649868 competition), hOx2R
Description: as §1, §2
as §3, with “μM).” for “μM). Reactions were terminated by vacuum filtration, 3 washes of ice cold wash buffer (Tris-HCl pH 7.4/10 mM, with NaCl 154 mM). Competition data is expressed in Table 2 as Kd [μM].”

[5] = competition with about 1 nM [3H]-SB649868, CHO or HEK cell membranes expressing human orexin 2 receptor, read-out: binding hOx2R Kd

Compound: COc1cncc(N2CCC3(CCCC(=O)N3Cc3cccc4[nH]ccc34)CC2)n1 [Example 43, 1-((1H-indol-4-yl)methyl)-9-(6-methoxypyrazin-2-yl)-1,9-diazaspiro[5.5]undecan-2-one]
- Ki (human orexin 2 receptors [1]): 17 nM
- Ki (human orexin 1 receptors [2]): 729 nM
- Kd (human orexin 1 receptors [3]): 1860 nM
- Kd (human orexin 2 receptors [4]; [5]): 612 nM

Compound: Cc1ccnc(N2CCC3(CCCC(=O)N3Cc3cccc4[nH]c(C)cc34)CC2)n1 [Example 96, 1-((2-methyl-1H-indol-4-yl)methyl)-9-(4-methylpyrimidin-2-yl)-1,9-diazaspiro[5.5]undecan-2-one]
- Ki (human orexin 2 receptors [1]): 18 nM
- Ki (human orexin 1 receptors [2]): 866 nM
- Kd (human orexin 1 receptors [3]): 1940 nM
- Kd (human orexin 2 receptors [4]; [5]): 90 nM

Compound: Cc1cc(N(C)C)nc(N2CCC3(CCCN(Cc4c[nH]c5ccccc45)C3=O)CC2)n1 [Example 113, 2-((1H-indol-3-yl)methyl)-9-(4-(dimethylamino)-6-methylpyrimidin-2-yl)-2,9-diazaspiro[5.5]undecan-1-one]
- Ki (human orexin 2 receptors [1]): 21 nM
- Ki (human orexin 1 receptors [2]): 1430 nM
- Kd (human orexin 1 receptors [3]): 389 nM
- Kd (human orexin 2 receptors [4]; [5]): 28 nM

Compound: Cc1cc(C)nc(N2CCC3(CCCN(Cc4nn(C)cc4-c4ccccc4)C3=O)CC2)n1 [Example 107, 9-(4,6-dimethylpyrimidin-2-yl)-2-((1-methyl-4-phenyl-1H-pyrazol-3-yl)methyl)-2,9-diazaspiro[5.5]undecan-1-one]
- Ki (human orexin 2 receptors [1]): 20 nM
- Ki (human orexin 1 receptors [2]): 833 nM
- Kd (human orexin 1 receptors [3]): 2250 nM
- Kd (human orexin 2 receptors [4]; [5]): 166 nM

Compound: COCc1cccc(-c2nn(C)nc2CN2CCCC3(CCN(c4nc(C)cc(C)n4)CC3)C2=O)c1 [Example 119, 9-(4,6-dimethylpyrimidin-2-yl)-2-((5-(3-(methoxymethyl)phenyl)-2-methyl-2H-1,2,3-triazol-4-yl)methyl)-2,9-diazaspiro[5.5]undecan-1-one]
- Ki (human orexin 2 receptors [1]): 3.9 nM
- Ki (human orexin 1 receptors [2]): 868 nM
- Kd (human orexin 1 receptors [3]): 1330 nM
- Kd (human orexin 2 receptors [4]): 28 nM

Compound: Cc1cnc(N2CCC3(CCCN(Cc4c[nH]c5ccccc45)C3=O)CC2)nc1C [Example 81, 2-((1H-indol-3-yl)methyl)-9-(4,5-dimethylpyrimidin-2-yl)-2,9-diazaspiro[5.5]undecan-1-one]
- Ki (human orexin 2 receptors [1]): 45 nM
- Ki (human orexin 1 receptors [2]): 2030 nM
- Kd (human orexin 1 receptors [3]): 798 nM
- Kd (human orexin 2 receptors [4]; [5]): 29 nM

Compound: Cc1cc(C#N)nc(N2CCC3(CCCN(Cc4cccc(-c5ncc(C)o5)c4)C3=O)CC2)n1 [Example 37, 6-methyl-2-(2-(3-(5-methyloxazol-2-yl)benzyl)-1-oxo-2,9-diazaspiro[5.5]undecan-9-yl)pyrimidine-4-carbonitrile]
- Ki (human orexin 2 receptors [1]): 79 nM
- Ki (human orexin 1 receptors [2]): 1890 nM
- Kd (human orexin 1 receptors [3]): > 10000 nM
- Kd (human orexin 2 receptors [4]; [5]): 1160 nM

Compound: N#Cc1ccnc(N2CCC3(CCCN(Cc4cccc(-c5ncccn5)c4)C3=O)CC2)n1 [Example 33, 2-(1-oxo-2-(3-(pyrimidin-2-yl)benzyl)-2,9-diazaspiro[5.5]undecan-9-yl)pyrimidine-4-carbonitrile]
- Ki (human orexin 2 receptors [1]): 37 nM
- Ki (human orexin 1 receptors [2]): 477 nM
- Kd (human orexin 1 receptors [3]): 744 nM
- Kd (human orexin 2 receptors [4]; [5]): 220 nM

Compound: Cc1cc(C)nc(N2CCC3(CCCN(Cc4c[nH]c5c(C)cccc45)C3=O)CC2)n1 [Example 103, 9-(4,6-dimethylpyrimidin-2-yl)-2-((7-methyl-1H-indol-3-yl)methyl)-2,9-diazaspiro[5.5]undecan-1-one]
- Ki (human orexin 2 receptors [1]): 26 nM
- Ki (human orexin 1 receptors [2]): 1900 nM
- Kd (human orexin 1 receptors [3]): 1770 nM
- Kd (human orexin 2 receptors [4]; [5]): 35 nM

Compound: COCc1cccc(-c2oc(C)nc2CN2CCCC3(CCN(c4nc(C)cc(C)n4)CC3)C2=O)c1 [Example 124, 9-(4,6-dimethylpyrimidin-2-yl)-2-((5-(3-(methoxymethyl)phenyl)-2-methyloxazol-4-yl)methyl)-2,9 diazaspiro[5.5]undecan-1-one]
- Ki (human orexin 2 receptors [1]): 1.2 nM
- Ki (human orexin 1 receptors [2]): 101 nM
- Kd (human orexin 1 receptors [3]): 368 nM
- Kd (human orexin 2 receptors [4]; [5]): 19 nM

Compound: COc1cccc(N2CCC3(CCCN(Cc4c[nH]c5ccccc45)C3=O)CC2)n1 [Example 65, 2-((1H-indol-3-yl)methyl)-9-(6-methoxypyridin-2-yl)-2,9-diazaspiro[5.5]undecan-1-one]
- Ki (human orexin 2 receptors [1]): 66 nM
- Ki (human orexin 1 receptors [2]): 699 nM
- Kd (human orexin 1 receptors [3]): > 10000 nM
- Kd (human orexin 2 receptors [4]; [5]): 588 nM

Compound: O=C1N(Cc2c[nH]c3ccccc23)CCCC12CCN(c1nccc(Cl)n1)CC2 [Example 51, 2-((1H-indol-3-yl)methyl)-9-(4-chloropyrimidin-2-yl)-2,9-diazaspiro[5.5]undecan-1-one]
- Ki (human orexin 2 receptors [1]): 84 nM
- inhibition at 10 µM (human orexin 1 receptors [2]; read-out: FLIPR hOx1R % inhibition value): 44%
- Kd (human orexin 1 receptors [3]): 4820 nM
- Kd (human orexin 2 receptors [4]; [5]): 700 nM

Compound: Cc1cc(C)nc(N2CCC3(CCCN(Cc4c[nH]c5ccccc45)C3=O)CC2)n1 [Example 5, 2-((1H-indol-3-yl)methyl)-9-(4,6-dimethylpyrimidin-2-yl)-2,9-diazaspiro[5.5]undecan-1-one]
- Ki (human orexin 2 receptors [1]): 10 nM
- Ki (human orexin 1 receptors [2]): 870 nM
- Kd (human orexin 1 receptors [3]): 966 nM
- Kd (human orexin 2 receptors [4]; [5]): 35 nM

Compound: Cc1cncc(N2CCC3(CCCN(Cc4c[nH]c5ccccc45)C3=O)CC2)n1 [Example 11, 2-((1H-indol-3-yl)methyl)-9-(6-methylpyrazin-2-yl)-2,9-diazaspiro[5.5]undecan-1-one]
- Ki (human orexin 2 receptors [1]): 23 nM
- Ki (human orexin 1 receptors [2]): 1390 nM
- Kd (human orexin 1 receptors [3]): 6590 nM
- Kd (human orexin 2 receptors [4]; [5]): 244 nM

Compound: Cc1cc(C)nc(N2CCC3(CCCN(Cc4nn(C)nc4Br)C3=O)CC2)n1 [Example 118, 2-((5-bromo-2-methyl-2H-1,2,3-triazol-4-yl)methyl)-9-(4,6-dimethylpyrimidin-2-yl)-2,9-diazaspiro[5.5]undecan-1-one]
- Ki (human orexin 2 receptors [1]): 79 nM
- Ki (human orexin 1 receptors [2]): 3580 nM
- Kd (human orexin 1 receptors [3]): 2110 nM
- Kd (human orexin 2 receptors [4]; [5]): 178 nM

Compound: COc1ccnc(N2CCC3(CCCN(Cc4ccccc4-c4nc(C)no4)C3=O)CC2)n1 [Example 114, 9-(4-methoxypyrimidin-2-yl)-2-(2-(3-methyl-1,2,4-oxadiazol-5-yl)benzyl)-2,9-diazaspiro[5.5]undecan-1-one]
- Ki (human orexin 2 receptors [1]): 30 nM
- Ki (human orexin 1 receptors [2]): 1530 nM
- Kd (human orexin 1 receptors [3]): 2140 nM
- Kd (human orexin 2 receptors [4]; [5]): 231 nM

Compound: Cc1cnc(-c2cccc(CN3CCCC4(CCN(c5cc(C#N)ccn5)CC4)C3=O)c2)o1 [Example 40, 2-(2-(3-(5-methyloxazol-2-yl)benzyl)-1-oxo-2,9-diazaspiro[5.5]undecan-9-yl)isonicotinonitrile]
- Ki (human orexin 2 receptors [1]): 19 nM
- Ki (human orexin 1 receptors [2]): 241 nM
- Kd (human orexin 1 receptors [3]): 332 nM
- Kd (human orexin 2 receptors [4]; [5]): 37 nM

Compound: COc1cc(OC)nc(N2CCC3(CCCN(Cc4c[nH]c5ccccc45)C3=O)CC2)n1 [Example 88, 2-((1H-indol-3-yl)methyl)-9-(4,6-dimethoxypyrimidin-2-yl)-2,9-diazaspiro[5.5]undecan-1-one]
- Ki (human orexin 2 receptors [1]): 46 nM
- Ki (human orexin 1 receptors [2]): 406 nM
- Kd (human orexin 1 receptors [3]): 5060 nM
- Kd (human orexin 2 receptors [4]; [5]): 611 nM

Compound: Cc1cc(C)nc(N2CCC3(CCCC(=O)N3Cc3cccc4[nH]ccc34)CC2)n1 [Example 3, 1-((1H-indol-4-yl)methyl)-9-(4,6-dimethylpyrimidin-2-yl)-1,9-diazaspiro[5.5]undecan-2-one]
- Ki (human orexin 2 receptors [1]): 0.9 nM
- Ki (human orexin 1 receptors [2]): 381 nM
- Kd (human orexin 1 receptors [3]): 483 nM
- Kd (human orexin 2 receptors [4]; [5]): 12 nM

Compound: Cc1cncc(N2CCC3(CCCC(=O)N3Cc3cccc4[nH]ccc34)CC2)n1 [Example 41, 1-((1H-indol-4-yl)methyl)-9-(6-methylpyrazin-2-yl)-1,9-diazaspiro[5.5]undecan-2-one]
- Ki (human orexin 2 receptors [1]): 15 nM
- Ki (human orexin 1 receptors [2]): 1640 nM
- Kd (human orexin 1 receptors [3]): 2820 nM
- Kd (human orexin 2 receptors [4]; [5]): 85 nM

Compound: CCc1cc(C)nc(N2CCC3(CCCN(Cc4c[nH]c5ccccc45)C3=O)CC2)n1 [Example 111, 2-((1H-indol-3-yl)methyl)-9-(4-ethyl-6-methylpyrimidin-2-yl)-2,9-diazaspiro[5.5]undecan-1-one]
- Ki (human orexin 2 receptors [1]): 11 nM
- Ki (human orexin 1 receptors [2]): 761 nM
- Kd (human orexin 1 receptors [3]): 835 nM
- Kd (human orexin 2 receptors [4]; [5]): 44 nM

From patent publication US20120101110A1, “Diaza-spiro[5.5]undecanes” (priority 2010, published 2012)
